The species entered for test [1] is Rattus norvegicus. The experiment in a line: Inhibition of rat liver glucosidase 2 assessed as inhibition of consumption at 100 uM after 24 hrs.
Test [2] is described as follows: Inhibition of rat liver glucosidase 2 assessed as inhibition of conversion of G1M9 to M9.
For test [3], the species on record is Rattus norvegicus. Description: Inhibition of rat liver glucosidase 2 assessed as inhibition of consumption at 100 uM after 20 mins.
The species entered for test [4] is Rattus norvegicus. The experiment in a line: Inhibition of rat liver glucosidase 2 assessed as inhibition of consumption at 100 uM after 1 hr.
The nature of test [5]: Inhibition of rat liver glucosidase 2 assessed as inhibition of conversion of G2M9 to G1M9.

Some results are limits rather than exact numbers.

The inhibition is the relative decrease from the control value, in per cent. A word on the IC50: it is the midpoint of a concentration-inhibition curve. Turning to `O[C@H]1[C@H](O)C=CC(Br)[C@@H]1O` (some centres undefined) [BROMOCONDURITOL], the results for the inhibition in the test filed under Rattus norvegicus [1], in the test listed under Rattus norvegicus [3] and in the test listed under Rattus norvegicus [4] were under 10%, 36% and 20%, respectively. Also, the IC50 in test [2] came out at 41 µM; in test [5], 262 µM.
Consider `O[C@H]1[C@H](O)[C@@H](O)CN2CC[C@H](O)[C@H]12` [CASTANOSPERMINE], for which the IC50 in test [2] came out at 1.1 µM; in test [5], 1.3 µM.
The corresponding values for `OC[C@H]1NC[C@H](O)[C@@H](O)[C@@H]1O` [DUVOGLUSTAT] are 11.2 µM and 8.2 µM.

Source of the values: ChEMBL document CHEMBL1221282, “The action of bromoconduritol on ER glucosidase II” (Bioorg Med Chem Lett, 2010).
